# Source: ChEMBL document CHEMBL5620360, “Design, synthesis and biological evaluation of 4-(4-aminophenoxy)picolinamide derivatives as potential antitumor agents” (Eur J Med Chem, 2023)
# Activity calls are given as the source filed them. The rule behind the calls is not given here.
# How the values were obtained:
# [1] = AUC(0 to t) in Sprague-Dawley rat at 1 mg/kg, iv by LC-MS/MS analysis; format: ADME, organism-based; settings: in vivo
# A549 [2] = assay: Induction of cell cycle arrest in human A549 cells assessed as accumulation of cells at G2 phase at 5 uM incubated for 24 hrs by propidium iodide staining based flow cytometry (reference value: 7.36%); format: functional
# [3] = target: Mast/stem cell growth factor receptor Kit (Homo sapiens, UniProt P10721); assay: Inhibition of c-Kit (unknown origin)
# Chain of Mast/stem cell growth factor receptor Kit (P10721 whole entry): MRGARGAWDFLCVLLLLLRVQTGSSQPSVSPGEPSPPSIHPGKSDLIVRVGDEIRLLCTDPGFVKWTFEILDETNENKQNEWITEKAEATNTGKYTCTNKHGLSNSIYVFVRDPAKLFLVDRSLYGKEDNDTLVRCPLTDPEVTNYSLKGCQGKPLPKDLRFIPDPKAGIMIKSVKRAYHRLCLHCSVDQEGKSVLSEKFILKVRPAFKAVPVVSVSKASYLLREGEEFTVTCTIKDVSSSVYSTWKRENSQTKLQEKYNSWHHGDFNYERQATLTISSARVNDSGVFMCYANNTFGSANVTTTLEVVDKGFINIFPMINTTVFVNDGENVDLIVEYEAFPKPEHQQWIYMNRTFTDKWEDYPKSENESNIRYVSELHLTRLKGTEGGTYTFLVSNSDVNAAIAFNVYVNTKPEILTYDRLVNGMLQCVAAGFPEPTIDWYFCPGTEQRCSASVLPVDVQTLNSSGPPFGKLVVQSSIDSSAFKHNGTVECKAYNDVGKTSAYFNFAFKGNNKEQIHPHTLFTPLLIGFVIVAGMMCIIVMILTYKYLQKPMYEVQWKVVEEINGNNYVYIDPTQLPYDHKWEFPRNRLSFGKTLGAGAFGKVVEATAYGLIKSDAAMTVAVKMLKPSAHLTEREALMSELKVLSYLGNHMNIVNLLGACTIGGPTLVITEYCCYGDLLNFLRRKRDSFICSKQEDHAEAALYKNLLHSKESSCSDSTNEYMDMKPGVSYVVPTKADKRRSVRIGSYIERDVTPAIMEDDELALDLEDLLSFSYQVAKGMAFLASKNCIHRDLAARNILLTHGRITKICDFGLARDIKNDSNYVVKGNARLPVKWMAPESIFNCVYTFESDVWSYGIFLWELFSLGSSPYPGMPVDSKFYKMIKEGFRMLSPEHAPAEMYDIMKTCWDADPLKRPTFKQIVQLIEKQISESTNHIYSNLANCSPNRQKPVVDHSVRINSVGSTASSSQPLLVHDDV
# A549 [4] = assay: Induction of apoptosis in human A549 cells assessed as necrotic cells at […] measured after 24 hrs by AnnexinV-FITC/PI staining based flow cytometry (reference value: 4.01%); format: functional; settings: dose 2.5 µM
# A549 [5] = assay: Induction of apoptosis in human A549 cells assessed as early apoptotic cells at […] measured after 24 hrs by AnnexinV-FITC/PI staining based flow cytometry (reference value: 1.26%); format: functional; settings: dose 2.5 µM
# [6] = Oral bioavailability in Sprague-Dawley rat at 10 mg/kg by LC-MS/MS analysis; format: ADME, organism-based; settings: in vivo
# [7] = AUC(0 to infinity) in Sprague-Dawley rat at 1 mg/kg, iv by LC-MS/MS analysis; format: ADME, organism-based; settings: in vivo
# [8] = Half life in Sprague-Dawley rat at 1 mg/kg, iv by LC-MS/MS analysis; format: ADME, organism-based; settings: in vivo
# A549 [9] = assay: Induction of cell cycle arrest in human A549 cells assessed as accumulation of cells at G1 phase at […] incubated for 24 hrs by propidium iodide staining based flow cytometry (reference value: 54.46%); format: functional; settings: dose 2.5 µM
# A549 [10] = assay: Induction of apoptosis in human A549 cells assessed as late apoptotic cells at 10 uM measured after 24 hrs by AnnexinV-FITC/PI staining based flow cytometry (reference value: 1.47%); format: functional
# [11] = target: Hepatocyte growth factor receptor (Homo sapiens, UniProt P08581); assay: Inhibition of c-Met (unknown origin)
# Chain of Hepatocyte growth factor receptor (P08581 whole entry): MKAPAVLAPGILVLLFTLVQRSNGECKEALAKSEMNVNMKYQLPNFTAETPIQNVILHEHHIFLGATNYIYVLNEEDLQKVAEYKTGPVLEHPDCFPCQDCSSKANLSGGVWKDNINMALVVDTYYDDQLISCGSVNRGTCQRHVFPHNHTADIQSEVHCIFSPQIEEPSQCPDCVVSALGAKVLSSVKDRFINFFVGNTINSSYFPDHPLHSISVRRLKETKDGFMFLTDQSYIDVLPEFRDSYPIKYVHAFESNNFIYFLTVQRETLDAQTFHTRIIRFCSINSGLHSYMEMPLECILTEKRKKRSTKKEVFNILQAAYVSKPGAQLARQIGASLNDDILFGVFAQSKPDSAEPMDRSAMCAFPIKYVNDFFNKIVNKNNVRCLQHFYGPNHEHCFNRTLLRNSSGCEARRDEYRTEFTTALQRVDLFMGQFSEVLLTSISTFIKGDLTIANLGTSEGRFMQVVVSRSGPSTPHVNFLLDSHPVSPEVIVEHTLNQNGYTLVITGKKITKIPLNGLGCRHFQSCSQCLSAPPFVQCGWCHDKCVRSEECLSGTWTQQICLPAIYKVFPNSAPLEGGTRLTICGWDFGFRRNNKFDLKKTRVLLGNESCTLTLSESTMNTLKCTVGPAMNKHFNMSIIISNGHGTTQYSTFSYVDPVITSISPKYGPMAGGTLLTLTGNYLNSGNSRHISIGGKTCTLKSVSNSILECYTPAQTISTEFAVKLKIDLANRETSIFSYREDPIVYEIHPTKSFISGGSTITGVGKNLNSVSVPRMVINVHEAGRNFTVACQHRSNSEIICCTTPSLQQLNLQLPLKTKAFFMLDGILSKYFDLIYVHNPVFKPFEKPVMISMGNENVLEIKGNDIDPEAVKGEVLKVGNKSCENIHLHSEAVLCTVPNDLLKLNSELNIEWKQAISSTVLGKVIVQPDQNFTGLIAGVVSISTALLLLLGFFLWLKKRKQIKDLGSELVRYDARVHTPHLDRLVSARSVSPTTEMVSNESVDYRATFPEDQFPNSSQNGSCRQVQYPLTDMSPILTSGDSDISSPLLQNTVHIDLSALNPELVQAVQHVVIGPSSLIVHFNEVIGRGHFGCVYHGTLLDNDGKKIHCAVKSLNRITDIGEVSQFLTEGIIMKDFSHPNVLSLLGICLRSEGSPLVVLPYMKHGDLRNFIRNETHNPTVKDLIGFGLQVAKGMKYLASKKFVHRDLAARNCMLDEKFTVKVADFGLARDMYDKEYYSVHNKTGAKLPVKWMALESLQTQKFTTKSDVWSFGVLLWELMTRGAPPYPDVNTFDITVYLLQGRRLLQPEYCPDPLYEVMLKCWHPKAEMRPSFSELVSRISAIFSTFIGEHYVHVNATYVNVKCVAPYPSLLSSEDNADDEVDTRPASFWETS
# [12] = Cmax in Sprague-Dawley rat at 1 mg/kg, iv by LC-MS/MS analysis; format: ADME, organism-based; settings: in vivo
# A549 [13] = assay: Induction of cell cycle arrest in human A549 cells assessed as accumulation of cells at S phase at […] incubated for 24 hrs by propidium iodide staining based flow cytometry (reference value: 38.18%); format: functional; settings: dose 2.5 µM
# A549 [14] = assay: Induction of morphological changes in human A549 cells assessed as abnormal cell morphology at 1.1 uM measured after 12 hrs by acridine orange staining based fluorescence microscopy; format: functional
# [15] = target: Vascular endothelial growth factor receptor 2 (Homo sapiens, UniProt P35968); assay: Inhibition of VEGFR2 (unknown origin)
# Chain of Vascular endothelial growth factor receptor 2 (P35968 whole entry): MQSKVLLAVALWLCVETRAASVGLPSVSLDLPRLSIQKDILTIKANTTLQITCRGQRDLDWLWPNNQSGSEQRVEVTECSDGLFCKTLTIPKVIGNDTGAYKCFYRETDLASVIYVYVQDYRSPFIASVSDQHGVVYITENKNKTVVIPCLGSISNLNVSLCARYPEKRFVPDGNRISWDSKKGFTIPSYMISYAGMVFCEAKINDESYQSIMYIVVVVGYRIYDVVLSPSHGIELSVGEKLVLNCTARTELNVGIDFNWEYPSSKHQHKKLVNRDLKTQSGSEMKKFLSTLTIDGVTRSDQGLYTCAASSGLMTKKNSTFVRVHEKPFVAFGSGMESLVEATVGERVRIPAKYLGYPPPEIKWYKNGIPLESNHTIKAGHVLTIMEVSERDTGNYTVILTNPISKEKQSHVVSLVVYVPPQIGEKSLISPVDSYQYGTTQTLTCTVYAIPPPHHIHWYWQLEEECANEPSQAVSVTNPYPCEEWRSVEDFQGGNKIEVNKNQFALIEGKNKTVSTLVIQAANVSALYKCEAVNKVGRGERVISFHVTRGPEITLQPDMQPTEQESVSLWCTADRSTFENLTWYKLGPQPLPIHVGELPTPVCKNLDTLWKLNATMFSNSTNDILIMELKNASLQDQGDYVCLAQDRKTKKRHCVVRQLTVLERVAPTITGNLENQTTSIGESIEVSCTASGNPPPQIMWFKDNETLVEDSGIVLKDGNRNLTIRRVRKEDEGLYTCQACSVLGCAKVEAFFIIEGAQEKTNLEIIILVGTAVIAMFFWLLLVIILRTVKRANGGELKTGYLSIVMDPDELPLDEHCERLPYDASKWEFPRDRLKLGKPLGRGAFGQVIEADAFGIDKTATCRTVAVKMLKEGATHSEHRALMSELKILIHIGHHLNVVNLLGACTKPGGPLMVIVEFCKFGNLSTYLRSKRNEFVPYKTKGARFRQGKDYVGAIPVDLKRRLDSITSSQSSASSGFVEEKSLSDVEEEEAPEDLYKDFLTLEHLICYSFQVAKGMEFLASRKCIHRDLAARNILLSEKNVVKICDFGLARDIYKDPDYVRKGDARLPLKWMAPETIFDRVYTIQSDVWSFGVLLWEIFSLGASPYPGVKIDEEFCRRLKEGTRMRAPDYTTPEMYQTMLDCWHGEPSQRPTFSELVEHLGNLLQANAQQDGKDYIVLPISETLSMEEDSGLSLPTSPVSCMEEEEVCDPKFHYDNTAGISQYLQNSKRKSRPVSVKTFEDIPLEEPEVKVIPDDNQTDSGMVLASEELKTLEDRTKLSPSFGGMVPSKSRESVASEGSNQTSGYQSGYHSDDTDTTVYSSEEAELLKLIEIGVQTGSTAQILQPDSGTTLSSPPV
# A549 [16] = assay: Induction of cell cycle arrest in human A549 cells assessed as accumulation of cells at G2 phase at 10 uM incubated for 24 hrs by propidium iodide staining based flow cytometry (reference value: 7.36%); format: functional
# [17] = Half life in Sprague-Dawley rat at 10 mg/kg, po by LC-MS/MS analysis; format: ADME, organism-based; settings: in vivo
# A549 [18] = assay: Induction of apoptosis in human A549 cells assessed as viable cells at 5 uM measured after 24 hrs by AnnexinV-FITC/PI staining based flow cytometry (reference value: 93.25%); format: functional; settings: read-out: Activity
# [19] = Tmax in Sprague-Dawley rat at 10 mg/kg, po by LC-MS/MS analysis; format: ADME, organism-based; settings: in vivo
# [20] = Cmax in Sprague-Dawley rat at 10 mg/kg, po by LC-MS/MS analysis; format: ADME, organism-based; settings: in vivo
# HeLa = assay: Antiproliferative activity against human HeLa cells assessed as reduction in cell viability incubated for 72 hrs by MTT assay; format: functional, cell-based; settings: Homo sapiens, HeLa, 72 h; read-out: IC50
# [21] = target: Dual specificity mitogen-activated protein kinase kinase 1 (Homo sapiens, UniProt Q02750); assay: Inhibition of MEK1 (unknown origin)
# Chain of Dual specificity mitogen-activated protein kinase kinase 1 (Q02750 whole entry): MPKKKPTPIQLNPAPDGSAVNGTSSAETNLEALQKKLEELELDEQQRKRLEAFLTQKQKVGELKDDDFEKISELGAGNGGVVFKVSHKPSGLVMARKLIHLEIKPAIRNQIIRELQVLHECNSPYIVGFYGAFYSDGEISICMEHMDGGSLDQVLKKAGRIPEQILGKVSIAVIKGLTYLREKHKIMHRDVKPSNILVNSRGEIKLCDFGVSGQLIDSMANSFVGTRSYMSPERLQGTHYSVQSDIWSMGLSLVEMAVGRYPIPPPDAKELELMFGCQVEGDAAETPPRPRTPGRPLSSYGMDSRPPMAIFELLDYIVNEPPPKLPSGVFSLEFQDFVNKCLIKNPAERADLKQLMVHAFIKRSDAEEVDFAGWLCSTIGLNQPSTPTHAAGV
# [22] = AUC(0 to infinity) in Sprague-Dawley rat at 10 mg/kg, po by LC-MS/MS analysis; format: ADME, organism-based; settings: in vivo
# A549 [23] = assay: Induction of cell cycle arrest in human A549 cells assessed as accumulation of cells at G1 phase at 5 uM incubated for 24 hrs by propidium iodide staining based flow cytometry (reference value: 54.46%); format: functional
# A549 [24] = assay: Induction of apoptosis in human A549 cells assessed as viable cells at […] measured after 24 hrs by AnnexinV-FITC/PI staining based flow cytometry (reference value: 93.25%); format: functional; settings: dose 2.5 µM, read-out: Activity
# A549 [25] = assay: Induction of apoptosis in human A549 cells assessed as early apoptotic cells at 10 uM measured after 24 hrs by AnnexinV-FITC/PI staining based flow cytometry (reference value: 1.26%); format: functional
# A549 [26] = assay: Induction of cell cycle arrest in human A549 cells assessed as accumulation of cells at S phase at 5 uM incubated for 24 hrs by propidium iodide staining based flow cytometry (reference value: 38.18%); format: functional
# [27] = target: T1, Receptor-type tyrosine-protein kinase FLT3 (Homo sapiens, UniProt P36888); assay: Inhibition of Flt3 (unknown origin)
# T1 sequence (P36888 whole entry): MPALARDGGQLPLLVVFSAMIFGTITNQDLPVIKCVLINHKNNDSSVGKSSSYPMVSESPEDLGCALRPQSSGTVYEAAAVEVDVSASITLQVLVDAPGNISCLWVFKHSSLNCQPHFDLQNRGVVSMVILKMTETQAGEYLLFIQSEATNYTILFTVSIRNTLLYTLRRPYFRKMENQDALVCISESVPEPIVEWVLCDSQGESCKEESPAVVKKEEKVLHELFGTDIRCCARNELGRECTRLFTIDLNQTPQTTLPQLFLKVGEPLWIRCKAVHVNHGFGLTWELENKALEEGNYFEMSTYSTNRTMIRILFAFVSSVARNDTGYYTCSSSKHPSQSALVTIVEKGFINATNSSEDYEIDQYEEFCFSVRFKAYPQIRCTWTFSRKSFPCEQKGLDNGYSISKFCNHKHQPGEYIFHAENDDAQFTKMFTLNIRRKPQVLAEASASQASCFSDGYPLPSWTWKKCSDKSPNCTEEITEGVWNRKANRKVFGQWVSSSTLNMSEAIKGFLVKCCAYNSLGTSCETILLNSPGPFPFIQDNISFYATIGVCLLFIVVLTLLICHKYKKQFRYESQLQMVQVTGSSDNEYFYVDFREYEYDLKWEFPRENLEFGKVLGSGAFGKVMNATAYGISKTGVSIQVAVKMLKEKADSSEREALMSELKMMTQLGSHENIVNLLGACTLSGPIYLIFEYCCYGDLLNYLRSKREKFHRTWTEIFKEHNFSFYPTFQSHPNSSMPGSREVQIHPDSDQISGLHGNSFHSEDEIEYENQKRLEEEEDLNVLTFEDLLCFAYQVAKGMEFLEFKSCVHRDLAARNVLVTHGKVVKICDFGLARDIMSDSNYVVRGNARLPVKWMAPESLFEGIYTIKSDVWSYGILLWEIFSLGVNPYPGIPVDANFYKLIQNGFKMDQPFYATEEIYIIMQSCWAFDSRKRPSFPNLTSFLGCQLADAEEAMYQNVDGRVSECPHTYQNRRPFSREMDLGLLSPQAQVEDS
structure (smiles),measurement,setting,value
O=C(NCCCN1CCOCC1)c1cc(Oc2ccc(NC(=O)c3cn(-c4ccc(F)c(Cl)c4)c4ncccc4c3=O)cc2F)ccn1,AUC(0-t),[1],2.87 µg·h/mL
same,Activity,A549 [2],11.77%
same,IC50,[3],> 100 µM
same,Activity,A549 [4],3.34%
same,Activity,A549 [5],1.57%
same,bioavailability,[6],13.2%
same,AUC(0-inf),[7],2.87 µg·h/mL
same,half-life,[8],2.5 h
same,Activity,A549 [9],55.95%
same,Activity,A549 [10],8.25%
same,IC50,[11],0.0465 µM
same,Cmax,[12],1.63 µg/mL
same,Activity,A549 [13],35.16%
same,Activity,A549 [14],Active
same,IC50,[15],> 100 µM
same,Activity,A549 [16],12.65%
same,half-life,[17],4.5 h
same,viability at 5 µM,A549 [18],85.2%
same,Tmax,[19],2.7 h
same,Cmax,[20],0.39 µg/mL
same,IC50,HeLa,0.82 µM
same,IC50,[21],> 100 µM
same,AUC(0-inf),[22],3.41 µg·h/mL
same,Activity,A549 [23],57.38%
same,viability at […],A549 [24],93.1%
same,Activity,A549 [25],5.57%
same,Activity,A549 [26],30.85%
same,IC50,[27],> 100 µM
